From article PMC5848141, “A Pyridazine-Based Fluorescent Probe Targeting Aβ Plaques in Alzheimer's Disease” (Journal of Analytical Methods in Chemistry, 2018)

Molecular target: T1, β-amyloid Aβ42 (aggregates) (Homo sapiens, UniProt P05067)
T1 construct: gene APP; synthetic Aβ42 peptide, aggregated (fibrils)
Test: fluorescence saturation titration of probe with […] aggregated Aβ[…] in PBS
Assay type: binding
Conditions: read-out: Probe 3

T1 sequence (P05067 672-713 limits assumed): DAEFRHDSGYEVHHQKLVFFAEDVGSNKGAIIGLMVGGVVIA

Kd: 350 ± 30 nM
Compound: CN(C)c1ccc(/C=C/n2ncc3c(c2=O)Oc2ccc(C=C(C#N)C(=O)O)cc2O3)cc1 [compound 3, probe 3]
